Active and inactive are the calls of the source. The rule behind the calls is not given here.
Columns and labels:
[1] = target: T1, Epidermal growth factor receptor (Homo sapiens, UniProt P00533); test: Inhibition of wild type EGFR (unknown origin) using Tyr 4 peptide as substrate after 1.5 hrs by FRET-based Z'-LYTE assay
NCI-H1975 [2] = test: cells; type: functional, cell-based; conditions: Homo sapiens, NCI-H1975, 72 h
[3] = target: Epidermal growth factor receptor (Homo sapiens, UniProt P00533, L858R); test: Inhibition of EGFR L858R mutant (unknown origin) using Tyr 4 peptide as substrate after 1.5 hrs by FRET-based Z'-LYTE assay; type: protein assay
[4] = Antiproliferative activity against gefitinib-sensitive human HCC827 cells harboring EGFR E746 to A750 deletion after 72 hrs by MTS assay; type: functional, cell-based; conditions: HCC827, 72 h
[5] = target: Epidermal growth factor receptor (Homo sapiens, UniProt P00533, L858R/T790M); test: (§1) Inhibition of EGFR T790M/L858R double mutant (unknown origin) using Tyr 4 peptide as substrate after 1.5 hrs by FRET-based Z'-LYTE assay; type: protein assay
[6] = target: Epidermal growth factor receptor (Homo sapiens, UniProt P00533, T790M/L858R); test: as §1; type: protein assay
[7] = target: Receptor tyrosine-protein kinase erbB-2 (Homo sapiens) (UniProt P04626); conditions: 1 uM
Receptor tyrosine-protein kinase erbB-2 (Homo sapiens), sequence (P04626 whole entry): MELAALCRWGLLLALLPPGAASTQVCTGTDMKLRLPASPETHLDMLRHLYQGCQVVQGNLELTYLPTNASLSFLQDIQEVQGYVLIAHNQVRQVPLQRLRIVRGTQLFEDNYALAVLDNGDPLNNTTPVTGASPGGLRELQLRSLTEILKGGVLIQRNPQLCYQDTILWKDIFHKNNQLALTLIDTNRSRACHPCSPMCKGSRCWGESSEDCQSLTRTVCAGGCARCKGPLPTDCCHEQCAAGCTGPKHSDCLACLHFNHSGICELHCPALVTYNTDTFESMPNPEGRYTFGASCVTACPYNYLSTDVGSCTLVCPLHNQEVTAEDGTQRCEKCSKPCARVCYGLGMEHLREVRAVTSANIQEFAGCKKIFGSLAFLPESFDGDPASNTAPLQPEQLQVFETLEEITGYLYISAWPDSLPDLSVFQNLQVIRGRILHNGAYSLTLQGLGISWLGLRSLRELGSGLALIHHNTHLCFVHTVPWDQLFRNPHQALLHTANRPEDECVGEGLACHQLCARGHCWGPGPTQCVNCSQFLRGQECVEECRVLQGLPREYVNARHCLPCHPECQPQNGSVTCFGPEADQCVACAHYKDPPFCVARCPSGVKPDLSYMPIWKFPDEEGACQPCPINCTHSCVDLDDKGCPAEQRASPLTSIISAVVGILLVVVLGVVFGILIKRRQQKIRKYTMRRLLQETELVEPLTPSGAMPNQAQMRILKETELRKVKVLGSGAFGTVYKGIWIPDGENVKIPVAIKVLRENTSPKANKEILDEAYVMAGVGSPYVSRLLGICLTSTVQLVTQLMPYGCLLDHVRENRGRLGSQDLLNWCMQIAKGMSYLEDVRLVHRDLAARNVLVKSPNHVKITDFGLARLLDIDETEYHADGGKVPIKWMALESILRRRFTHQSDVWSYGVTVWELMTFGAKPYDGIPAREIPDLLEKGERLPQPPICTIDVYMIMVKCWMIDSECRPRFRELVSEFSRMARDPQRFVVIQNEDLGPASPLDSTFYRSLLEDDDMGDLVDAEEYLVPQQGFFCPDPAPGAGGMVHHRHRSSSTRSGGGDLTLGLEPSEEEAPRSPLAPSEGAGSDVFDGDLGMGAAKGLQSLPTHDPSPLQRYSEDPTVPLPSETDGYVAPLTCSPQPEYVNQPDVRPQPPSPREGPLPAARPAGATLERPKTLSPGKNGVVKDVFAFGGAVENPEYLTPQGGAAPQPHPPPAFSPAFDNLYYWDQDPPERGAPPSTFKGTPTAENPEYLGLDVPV
Description: Inhibition of HER2 (unknown origin) at 1 uM after 1 hr relative to control

[8] = target: Receptor tyrosine-protein kinase erbB-4 (Homo sapiens) (UniProt Q15303); conditions: 1 uM
Receptor tyrosine-protein kinase erbB-4 (Homo sapiens), sequence (Q15303 whole entry): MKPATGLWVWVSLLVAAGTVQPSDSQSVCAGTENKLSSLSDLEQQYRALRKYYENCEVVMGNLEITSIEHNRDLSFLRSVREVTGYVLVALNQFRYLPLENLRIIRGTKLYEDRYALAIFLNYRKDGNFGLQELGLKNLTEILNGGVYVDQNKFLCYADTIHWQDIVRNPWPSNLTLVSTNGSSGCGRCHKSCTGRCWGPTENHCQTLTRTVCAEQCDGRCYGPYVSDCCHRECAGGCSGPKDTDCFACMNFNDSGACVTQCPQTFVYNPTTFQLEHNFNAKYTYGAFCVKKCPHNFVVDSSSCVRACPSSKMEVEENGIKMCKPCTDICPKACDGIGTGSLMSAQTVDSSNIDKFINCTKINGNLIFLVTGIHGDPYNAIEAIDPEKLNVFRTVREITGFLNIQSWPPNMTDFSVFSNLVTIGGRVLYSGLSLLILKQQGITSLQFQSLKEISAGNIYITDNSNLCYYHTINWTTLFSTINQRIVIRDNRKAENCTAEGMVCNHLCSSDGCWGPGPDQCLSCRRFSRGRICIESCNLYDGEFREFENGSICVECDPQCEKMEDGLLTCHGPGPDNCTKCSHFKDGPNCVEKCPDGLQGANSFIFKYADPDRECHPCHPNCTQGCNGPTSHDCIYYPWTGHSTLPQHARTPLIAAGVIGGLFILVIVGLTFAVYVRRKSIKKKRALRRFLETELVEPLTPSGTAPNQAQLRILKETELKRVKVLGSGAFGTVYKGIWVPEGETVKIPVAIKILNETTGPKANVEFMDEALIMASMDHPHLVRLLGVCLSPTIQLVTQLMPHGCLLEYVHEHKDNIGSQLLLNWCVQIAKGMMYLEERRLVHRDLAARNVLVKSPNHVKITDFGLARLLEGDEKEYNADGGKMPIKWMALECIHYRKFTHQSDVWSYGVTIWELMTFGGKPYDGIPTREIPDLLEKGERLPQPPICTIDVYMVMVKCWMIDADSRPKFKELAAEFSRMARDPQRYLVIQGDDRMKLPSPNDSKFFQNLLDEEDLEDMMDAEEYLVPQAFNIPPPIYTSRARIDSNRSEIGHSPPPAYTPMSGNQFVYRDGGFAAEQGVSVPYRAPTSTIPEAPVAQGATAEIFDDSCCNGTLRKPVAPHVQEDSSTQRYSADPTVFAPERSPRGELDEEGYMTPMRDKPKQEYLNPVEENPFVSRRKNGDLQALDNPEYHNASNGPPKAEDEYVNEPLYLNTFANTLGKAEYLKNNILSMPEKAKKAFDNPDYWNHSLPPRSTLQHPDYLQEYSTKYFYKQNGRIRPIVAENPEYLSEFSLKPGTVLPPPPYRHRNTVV
Description: Inhibition of HER4 (unknown origin) at 1 uM after 1 hr relative to control

NCI-H1975 [9] = test: Antitumor activity against human NCI-H1975 cells xenografted in nude mouse assessed as induction of tumor stasis at 20 mg/kg, ip qd for 14 days; type: functional, organism-based; design: dose 20 mg/kg
Mus musculus [10] = test: Toxicity in nude mouse xenografted with human NCI-H1975 cells expressing T790M/L858R mutation assessed as body weight loss at 20 to 40 mg/kg, ip qd for 14 days relative to control; type: organism-based; design: dose 20-40 mg/kg, route intraperitoneal; conditions: in vivo, 336 h
[11] = target: T2, Tyrosine-protein kinase JAK3 (Homo sapiens) (UniProt P52333); conditions: 1 uM
T2 sequence (whole entry): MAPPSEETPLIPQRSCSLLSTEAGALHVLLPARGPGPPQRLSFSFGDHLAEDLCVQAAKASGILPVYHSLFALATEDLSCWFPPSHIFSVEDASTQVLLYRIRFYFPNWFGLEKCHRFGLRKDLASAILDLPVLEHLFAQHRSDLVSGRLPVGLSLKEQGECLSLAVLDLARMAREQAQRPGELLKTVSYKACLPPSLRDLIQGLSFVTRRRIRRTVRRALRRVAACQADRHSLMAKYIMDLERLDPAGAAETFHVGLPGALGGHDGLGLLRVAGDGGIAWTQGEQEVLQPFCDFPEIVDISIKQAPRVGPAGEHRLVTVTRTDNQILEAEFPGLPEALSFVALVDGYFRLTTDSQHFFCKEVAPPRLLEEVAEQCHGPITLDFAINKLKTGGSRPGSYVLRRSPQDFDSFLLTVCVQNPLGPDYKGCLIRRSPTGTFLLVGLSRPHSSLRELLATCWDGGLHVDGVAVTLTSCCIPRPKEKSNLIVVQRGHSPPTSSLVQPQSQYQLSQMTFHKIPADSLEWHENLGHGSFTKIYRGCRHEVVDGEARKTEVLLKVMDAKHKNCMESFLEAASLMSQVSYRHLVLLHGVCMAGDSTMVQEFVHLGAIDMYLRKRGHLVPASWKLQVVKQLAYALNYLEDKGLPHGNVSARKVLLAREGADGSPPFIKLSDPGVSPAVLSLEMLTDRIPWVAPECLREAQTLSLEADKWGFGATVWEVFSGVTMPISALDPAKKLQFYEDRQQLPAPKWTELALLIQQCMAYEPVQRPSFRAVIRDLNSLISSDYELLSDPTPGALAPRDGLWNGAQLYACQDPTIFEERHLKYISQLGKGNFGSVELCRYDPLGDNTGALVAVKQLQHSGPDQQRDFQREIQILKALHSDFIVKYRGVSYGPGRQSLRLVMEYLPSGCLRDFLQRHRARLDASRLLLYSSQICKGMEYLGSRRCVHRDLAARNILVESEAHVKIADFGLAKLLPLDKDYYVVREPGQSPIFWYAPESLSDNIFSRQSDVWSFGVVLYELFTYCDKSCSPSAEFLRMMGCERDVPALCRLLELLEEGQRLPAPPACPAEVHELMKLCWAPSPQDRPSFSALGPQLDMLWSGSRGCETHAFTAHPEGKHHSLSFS
Description: Inhibition of JAK3 JH1 catalytic domain (unknown origin) at 1 uM after 1 hr relative to control

NCI-H1975 [12] = test: Antitumor activity against human NCI-H1975 cells xenografted in nude mouse assessed as tumor growth inhibition at 20 mg/kg, ip qd for 14 days; type: functional, organism-based; design: dose 20 mg/kg
[13] = system: Epidermal growth factor receptor (Homo sapiens), P00533 [T790M]; conditions: 1 uM
[14] = system: Epidermal growth factor receptor (Homo sapiens), P00533 [L858R]; conditions: 1 uM
[15] = target: Tyrosine-protein kinase BTK (Homo sapiens) (UniProt Q06187); conditions: 1 uM
Tyrosine-protein kinase BTK (Homo sapiens), sequence (Q06187 whole entry): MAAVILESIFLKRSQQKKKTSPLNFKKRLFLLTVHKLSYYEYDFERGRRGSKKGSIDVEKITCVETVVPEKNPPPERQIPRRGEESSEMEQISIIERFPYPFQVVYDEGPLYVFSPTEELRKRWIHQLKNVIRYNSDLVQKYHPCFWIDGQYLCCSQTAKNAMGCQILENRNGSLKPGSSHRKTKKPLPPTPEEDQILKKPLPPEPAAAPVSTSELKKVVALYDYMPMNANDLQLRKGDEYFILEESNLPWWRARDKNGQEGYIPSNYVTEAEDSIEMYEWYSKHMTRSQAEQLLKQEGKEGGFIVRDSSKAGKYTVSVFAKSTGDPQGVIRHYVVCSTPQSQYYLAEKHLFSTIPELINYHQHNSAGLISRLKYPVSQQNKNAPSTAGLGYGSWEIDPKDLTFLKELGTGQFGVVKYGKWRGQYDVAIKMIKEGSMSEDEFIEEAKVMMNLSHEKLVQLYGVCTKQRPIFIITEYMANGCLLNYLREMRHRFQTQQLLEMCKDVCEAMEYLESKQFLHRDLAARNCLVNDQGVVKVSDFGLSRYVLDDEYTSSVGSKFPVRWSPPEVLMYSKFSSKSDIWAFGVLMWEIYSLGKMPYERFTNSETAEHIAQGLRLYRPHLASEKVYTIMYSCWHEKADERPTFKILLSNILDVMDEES
Description: Inhibition of BTK (unknown origin) at 1 uM after 1 hr relative to control

[16] = Toxicity in ip dosed nude mouse xenografted with human NCI-H1975 cells expressing T790M/L858R mutation administered qd for 14 days; type: organism-based; conditions: in vivo
[17] = system: Epidermal growth factor receptor (Homo sapiens), P00533 [L858R,T790M]; conditions: 1 uM
[18] = target: T1, Epidermal growth factor receptor; conditions: 1 uM
Description: Inhibition of EGFR (unknown origin) at 1 uM after 1 hr relative to control

Mus musculus [19] = test: Toxicity in nude mouse xenografted with human NCI-H1975 cells expressing T790M/L858R mutation assessed as mortality at 20 to 40 mg/kg, ip qd for 14 days; type: organism-based; design: dose 20-40 mg/kg, route intraperitoneal; conditions: in vivo, 336 h

SMILES	IC50 ([1]; read-out: IC50)	IC50 (NCI-H1975 [2])	IC50 ([3]; read-out: IC50)	IC50 [4]	IC50 [5]	also measured
COc1ccc(-n2c(=O)cnc3cnc(Nc4ccc(N)cc4)nc32)cc1	25800 nM	> 10000 nM	8450 nM	> 10000 nM		
C=CC(=O)Nc1cccc(-n2c(=O)cnc3cnc(Nc4ccc(N(CC)CC)cc4)nc32)c1	14.5 nM	4090 nM	14.1 nM	44.5 nM	4.72 nM	
CCC(=O)Nc1ccc(-n2c(=O)cnc3cnc(Nc4ccc(OC)cc4)nc32)cc1		> 10000 nM		> 10000 nM		IC50 [1]: Not Active; IC50 [6]: Not Active; IC50 [3]: Not Active
COc1ccc(Nc2ncc3ncc(=O)n(-c4cccc(N)c4)c3n2)cc1		> 10000 nM	55900 nM	> 10000 nM	21300 nM	IC50 [1]: Not Active
C=CC(=O)Nc1ccc(Nc2ncc3ncc(=O)n(-c4ccc(OC)cc4)c3n2)cc1	33900 nM	1330 nM	70600 nM	1460 nM	70200 nM	
COc1ccc(Nc2ncc3ncc(=O)n(-c4cccc(NC(=O)/C=C/CN(C)C)c4)c3n2)cc1	26300 nM	559 nM	32800 nM	917 nM	56200 nM	
COc1ccc(Nc2ncc3ncc(=O)n(-c4ccc(N)cc4)c3n2)cc1		> 10000 nM		> 10000 nM		IC50 [1]: Not Active; IC50 [6]: Not Active; IC50 [3]: Not Active
C=CC(=O)Nc1cccc(-n2c(=O)cnc3cnc(Nc4ccc(N5CCCC5)cc4)nc32)c1	15.3 nM	579 nM	13 nM	70.8 nM	4.96 nM	
C=CC(=O)Nc1ccc(-n2c(=O)cnc3cnc(Nc4ccccc4)nc32)cc1		> 10000 nM		> 10000 nM		IC50 [1]: Not Active; IC50 [6]: Not Active; IC50 [3]: Not Active
C=CC(=O)Nc1cccc(-n2c(=O)cnc3cnc(Nc4ccc(N5CCCCC5)cc4)nc32)c1	15.7 nM	298 nM	14.8 nM	25.3 nM	5.12 nM	
C=CC(=O)Nc1ccc(-n2c(=O)cnc3cnc(Nc4ccc(OC)cc4)nc32)cc1	5130 nM	2200 nM	23700 nM	1690 nM	4800 nM	
C=CC(=O)Nc1cccc(-n2c(=O)cnc3cnc(Nc4ccc(N5CCOCC5)cc4)nc32)c1	6.95 nM	255 nM	7.26 nM	15.2 nM	2.86 nM	
C=CC(=O)Nc1ccc(-n2c(=O)cnc3cnc(Nc4ccc(N5CCOCC5)cc4)nc32)cc1	5590 nM	> 10000 nM	8670 nM	7160 nM	3460 nM	
C=CC(=O)Oc1ccc(-n2c(=O)cnc3cnc(Nc4ccc(OC)cc4)nc32)cc1	60.4 nM	5900 nM	123 nM	8590 nM	59.1 nM	
C=CC(=O)Nc1cccc(-n2c(=O)cnc3cnc(Nc4ccc(NC(C)=O)cc4)nc32)c1	12.5 nM	4080 nM	14 nM	388 nM	4.53 nM	
C=CC(=O)Nc1ccc(-n2c(=O)cnc3cnc(Nc4ccc(Cl)cc4)nc32)cc1	374 nM	> 10000 nM	496 nM	> 10000 nM	144 nM	
CN(C)C/C=C/C(=O)Nc1ccc(-n2c(=O)cnc3cnc(Nc4ccccc4)nc32)cc1		> 10000 nM		5010 nM		IC50 [1]: Not Active; IC50 [6]: Not Active; IC50 [3]: Not Active
CCC(=O)Nc1cccc(-n2c(=O)cnc3cnc(Nc4ccc(OC)cc4)nc32)c1		> 10000 nM		> 10000 nM		IC50 [1]: Not Active; IC50 [6]: Not Active; IC50 [3]: Not Active
C=CC(=O)Nc1cccc(Nc2ncc3ncc(=O)n(-c4ccc(OC)cc4)c3n2)c1		2360 nM		1220 nM		IC50 [1]: Not Active; IC50 [6]: Not Active; IC50 [3]: Not Active
C=CC(=O)Nc1ccc(-n2c(=O)c(C)nc3cnc(Nc4ccc(OC)cc4)nc32)cc1	16300 nM	> 10000 nM	7170 nM	2760 nM	35000 nM	
COc1ccc(-n2c(=O)cnc3cnc(Nc4cccc(N)c4)nc32)cc1	18300 nM	> 10000 nM	8040 nM	> 10000 nM	3840 nM	
C=CC(=O)Nc1cccc(-n2c(=O)cnc3cnc(Nc4ccc(C(N)=O)cc4)nc32)c1	12.1 nM	8480 nM	11.8 nM	511 nM	3.97 nM	
C=CC(=O)Nc1cccc(-n2c(=O)cnc3cnc(Nc4ccc(N5CCN(C)CC5)cc4OC)nc32)c1	3.82 nM	59 nM	2.56 nM	8.6 nM	1.07 nM	residual activity [7]: < 10%; residual activity [8]: < 1%; Activity (NCI-H1975 [9]): Active; Activity (Mus musculus [10]): < 5%; residual activity [11]: < 10%; TGI (NCI-H1975 [12]): Active; residual activity [13]: 0.35%; residual activity [14]: 0.3%; residual activity [15]: < 1%; MTD at 336 h [16]: 20 mg/kg; residual activity [17]: 0.1%; residual activity [18]: < 10%; Activity (Mus musculus [19]): Non-toxic
C=CC(=O)Nc1ccc(-n2c(=O)cnc3cnc(Nc4ccc(N5CCN(C)CC5)cc4OC)nc32)cc1	395 nM	2740 nM	496 nM	503 nM	272 nM	
COc1ccc(Nc2ncc3ncc(=O)n(-c4ccc(NC(=O)/C=C/CN(C)C)cc4)c3n2)cc1	59.1 nM	> 10000 nM	76.5 nM	8380 nM	31.3 nM	
C=CC(=O)Nc1ccc(-n2c(=O)cnc3cnc(Nc4ccc(N5CCN(C)CC5)cc4)nc32)cc1	1100 nM	6140 nM	1510 nM	2370 nM	691 nM	
C=CC(=O)Nc1cccc(-n2c(=O)cnc3cnc(Nc4ccc(OC)cc4)nc32)c1	13.8 nM	63.8 nM	14.8 nM	9.49 nM	5.6 nM	
C=CC(=O)Nc1cccc(-n2c(=O)cnc3cnc(Nc4ccc(N5CCN(C)CC5)cc4)nc32)c1	1.21 nM	62.2 nM	1.32 nM	4.02 nM	0.677 nM	
C=CC(=O)Nc1cccc(-n2c(=O)cnc3cnc(Nc4ccc(Cl)cc4)nc32)c1	47.1 nM	2240 nM	49.1 nM	175 nM	17.6 nM	
